Data on 52 compounds can be found in ChEMBL document CHEMBL1156829 (Proc Natl Acad Sci U S A, 2008).

Where only a bound is given, the exact number is not on record here.

Series [1] in a line: NOVARTIS: Cytotoxicity against human hepatocellular carcinoma cell line (Huh7). Format: toxicity, cell-based, Huh-7. As to conditions: Huh7 cells (hepatocellular carcinoma cell line).
For series [2], the system named is Plasmodium falciparum. Briefly: NOVARTIS: Inhibition of Plasmodium falciparum 3D7 (drug-susceptible) proliferation in erythrocyte-based infection assay. It counts as functional, organism-based. The following applies: Plasmodium falciparum, 3D7.
In series [3] the test system is Plasmodium falciparum. Briefly: NOVARTIS: Inhibition of Plasmodium falciparum W2 (drug-resistant) proliferation in erythrocyte-based infection assay. Format: functional, organism-based. As to conditions: Plasmodium falciparum, W2; read-out: EC50.

Take `COc1ccc(C2=C(c3ccc(OC)cc3)C3(c4ccccc4)C(=O)C2(c2ccccc2)C2C(=O)N(c4ccccc4)C(=O)C23)cc1` (stereo unspecified): the CC50 (usually the concentration at which the toxic effect on the cells reaches its halfway point) in series [1] was over 10 µM. In addition, the EC50 (in general, the concentration that produces a half-maximal response) is 1.4 µM in the series with Plasmodium falciparum [2] and over 1.13 µM with Plasmodium falciparum [3].
In series [1], `CC1CC2CCC(O2)C(C)C(=O)O[C@H](C)CC2CCC(O2)C(C)C(=O)OC(C)CC2CCC(O2)C(C)C(=O)O[C@H](C)CC2CCC(O2)C(C)C(=O)O1` (stereo partly specified) had a CC50 of over 6.25 µM. For the same compound, the EC50 is 0.645 µM in the series with Plasmodium falciparum [2] and 0.699 µM in the series on Plasmodium falciparum [3].
For the compound `Cc1ccc(CC(=O)Nc2ccc(I)cc2)cc1`, the CC50 in series [1] was over 100 µM. Besides, the EC50 in the series on Plasmodium falciparum [2] and with Plasmodium falciparum [3] was over 11.2 µM each time.
`c1ccc(CSc2nc3ccncc3[nH]2)cc1` gave a CC50 in series [1] of over 10 µM. The EC50 with Plasmodium falciparum [2] is over 1.25 µM; in the series with Plasmodium falciparum [3], over 1.15 µM.
In the same order, the values of `CCN1CCCC1CNC(=O)CN1N=C(c2ccccc2)Cn2c(cc3ccccc32)C1=O` (stereo unspecified) are over 10 µM, over 1.25 µM and over 1.13 µM.
In the same order, the values of `COc1ccc(CC(=O)Nc2sc3c(c2C(=O)Nc2cccc4ccccc24)CCCC3)cc1` are over 10 µM, over 1.25 µM and 1.13 µM.
In the case of `CCC(C)(C)c1ccc(Oc2ccc(NC(=O)c3ccc([N+](=O)[O-])o3)cc2)cc1`, the CC50 in series [1] came out at 57.6 µM. The values for the EC50 in the series on Plasmodium falciparum [2] and in the series with Plasmodium falciparum [3] were 7.67 µM and 6.51 µM, respectively.
For `COc1ccc(-n2nc(C(=O)NCC(=O)Nc3nc4ccccc4s3)c3ccccc3c2=O)cc1Cl` the same measures were over 10 µM, over 1.25 µM and over 1.13 µM.
For `Cc1cc(C)nc(SCc2cc(=O)c(OC(=O)c3ccccc3Br)co2)n1` the same measures were over 100 µM, over 11.2 µM and over 11.2 µM.
In the same order, the values of `O=C(NN=Cc1ccc(O)c(O)c1)/C(=C/c1ccccc1)NC(=O)c1ccccc1` are over 10 µM, over 1.25 µM and over 1.11 µM.
As for `C[n+]1c(C=Cc2ccc(F)cc2)ccc2ccccc21`, the CC50 in series [1] is over 100 µM. Further, the figures for the EC50 in the series on Plasmodium falciparum [2] and in the series on Plasmodium falciparum [3] were 8.11 µM and 11.1 µM, respectively.
Consider `O=C(NNC(=O)c1cccc(F)c1)C(=O)N1CCOCC1`, for which the cytotoxic concentration (CC50) in series [1] was over 10 µM. The EC50 in the series on Plasmodium falciparum [2] was over 1.25 µM; with Plasmodium falciparum [3], over 1.11 µM.
In the same order, the values of `c1ccc(-c2cc(N3CCc4ccccc4C3)nc(-c3ccccn3)n2)nc1` are over 10 µM, 0.251 µM and 1.11 µM.
For `COc1ccc(C2c3[nH]c4ccccc4c3C[C@@H]3C(=O)N(CCC(C)C)CC(=O)N23)cc1` (stereo partly specified) the same measures were over 10 µM, over 1.25 µM and 1.11 µM.
In the same order, the values of `C/C=C/C(C(=O)NCCCC)N1C(=O)c2cc(NC(C)=O)ccc2NC(=O)[C@@H]1CCC(=O)O` (stereo partly specified) are 0.442 µM, over 1.5 µM and 0.0499 µM.
With `Cc1ccc2cc3cc(C(=O)NC(C)C)sc3nc2c1`, the CC50 in series [1] is over 10 µM. Further, the EC50 came out at 0.989 µM with Plasmodium falciparum [2] and 1.12 µM in the series on Plasmodium falciparum [3].
For `COc1ccc(-c2cn(-c3ccc(OC)cc3)c(SCC(=O)Nc3ccccc3)n2)cc1` the same measures were over 100 µM, over 11.2 µM and over 11.2 µM.
Regarding `COC(=O)c1ccccc1NC(=O)CSc1nc2ccsc2c(=O)n1CCN1CCCC1`, in series [1], the 50% cytotoxic concentration (CC50) is over 100 µM. The EC50 with Plasmodium falciparum [2] and in the series on Plasmodium falciparum [3] was over 11.2 µM each time.
In turn, `COc1ccc(OC)c(NC(=O)CSc2nc(NCc3ccc(Cl)cc3)c3ccccc3n2)c1` showed a CC50 in series [1] of over 100 µM. The EC50 in the series with Plasmodium falciparum [2] and with Plasmodium falciparum [3] was over 11.2 µM throughout.
`COc1ccc(/C=C/C(=O)NC(=O)c2ccccc2O)cc1OC` displayed a CC50 in series [1] of over 10 µM. Also, the EC50 was 1.08 µM in the series on Plasmodium falciparum [2] and 1.13 µM in the series on Plasmodium falciparum [3].
For `CCCCn1c(NN=C2C(=O)Nc3ccccc32)nc2c1c(=O)[nH]c(=O)n2C` the same measures were over 10 µM, 1.59 µM and 1.13 µM.
In series [1], `c1ccc(Cc2nc(NCc3ccc4c(c3)OCO4)c3c4c(sc3n2)CCCC4)cc1` yielded a CC50 of over 10 µM. For the same compound, the EC50 in the series on Plasmodium falciparum [2] is over 1.25 µM; in the series with Plasmodium falciparum [3], over 1.13 µM.
For `CCCCCCn1c2c(c(=N)c3ccccc31)CCC2` the same measures were over 10 µM, 0.681 µM and over 1.12 µM.
For `O=C(COc1ccc(-c2ncccn2)cc1CN1CCCCCC1)NCc1ccccc1C(F)(F)F` the same measures were over 10 µM, over 1.25 µM and over 1.15 µM.
In turn, `Cc1c(Cl)cccc1NC(=O)c1cccnc1Cl` returned a CC50 in series [1] of over 10 µM. The EC50 was over 1.25 µM in the series with Plasmodium falciparum [2] and over 1.15 µM with Plasmodium falciparum [3].
Turning to `Cc1cc(C)c(CSC(=N)N)c(C)c1CSC(=N)N`, the CC50 in series [1] was over 10 µM. Further, the EC50 in the series with Plasmodium falciparum [2] is 1.11 µM; in the series on Plasmodium falciparum [3], over 1.15 µM.
The compound `CCC(c1nc2ccccc2c(=O)n1-c1ccc(F)cc1)N(CCc1ccccc1)C(=O)COc1ccccc1` (stereo unspecified) gave a CC50 in series [1] of over 10 µM. Moreover, the EC50 in the series with Plasmodium falciparum [2] is 1.03 µM; in the series with Plasmodium falciparum [3], 1.15 µM.
For `CCC(=O)c1c(C)n(-c2ccc(Br)cc2)c2ccc(O)cc12` the same measures were over 10 µM, over 0.769 µM and 1.15 µM.
For `COc1ccc(Br)cc1S(=O)(=O)N1CCCc2ccccc21` the same measures were over 100 µM, 9.95 µM and 11.5 µM.
For the compound `COC(=O)c1c(-c2c(Cl)cccc2Cl)noc1C=CNc1ccccc1`, it took 76.8 µM to reach half-maximal cytotoxicity in series [1] (CC50). The EC50 with Plasmodium falciparum [2] was over 12.5 µM; in the series with Plasmodium falciparum [3] it was 8.79 µM.
In turn, `Cc1ccc(C(=O)C(C)[n+]2ccc(N(C)C)cc2)cc1` (stereo unspecified) showed a CC50 in series [1] of 35.3 µM. The EC50 is 0.438 µM in the series on Plasmodium falciparum [2] and 4.04 µM in the series with Plasmodium falciparum [3].
Regarding `COc1ccc(NC(=O)/C=C/c2ccccc2Cl)cc1`, the half-maximal cytotoxic concentration (CC50) in series [1] was over 10 µM. The EC50 with Plasmodium falciparum [2] was over 1.25 µM; in the series on Plasmodium falciparum [3], over 1.14 µM.
In the same order, the values of `CCCCCCN(C(=O)COc1ccc(Cl)cc1)C(CC)c1nc2ccccc2c(=O)n1-c1cccc(Cl)c1` (stereo unspecified) are over 10 µM, 0.433 µM and 1.14 µM.
`COC(=O)C1=C(C(=O)OC)SC(=C2C(=S)C(C)(C)N(C(=O)c3ccc([N+](=O)[O-])cc3)c3ccc(C)cc32)S1`: in series [1], the CC50 was over 10 µM. Further, the results for the EC50 in the series on Plasmodium falciparum [2] and in the series with Plasmodium falciparum [3] were over 0.371 µM and over 1.15 µM, respectively.
`CC(C)CNC(=O)c1cnc(NCCC2CCCN2C)nc1NC1CCCC1` (stereo unspecified): the CC50 in series [1] is over 10 µM. Also, the EC50 in the series with Plasmodium falciparum [2] stood at 0.908 µM; in the series with Plasmodium falciparum [3] it was 1.14 µM.
For `CCCCCCN(C(=O)c1ccc2ccccc2c1)C(CC)c1nc2ccccc2c(=O)n1-c1cccc(Cl)c1` (stereo unspecified) the same measures were over 10 µM, over 1.25 µM and over 1.13 µM.
In turn, `COC(=O)C1CCCCN1S(=O)(=O)c1ccc(C)cc1` (stereo unspecified) yielded a CC50 in series [1] of over 10 µM. For the same compound, the EC50 in the series on Plasmodium falciparum [2] was over 1.25 µM; in the series with Plasmodium falciparum [3], over 1.12 µM.
As to `Cc1c(C)c(C)c(CNC(=S)NN)c(C)c1C`, in series [1], the CC50 was over 100 µM. The EC50 in the series with Plasmodium falciparum [2] is 4.09 µM; in the series with Plasmodium falciparum [3], over 11.4 µM.
In turn, `CCCN(CC1CC1)C(=O)C1CCCN(c2cccc3c2C(=O)N(Cc2cc(OC)c(OC)c(OC)c2)C3=O)C1` (stereo unspecified) showed a CC50 in series [1] of over 10 µM. Further, the figures for the EC50 in the series with Plasmodium falciparum [2] and in the series on Plasmodium falciparum [3] were over 1.25 µM and 1.12 µM, respectively.
In the same order, the values of `O=C1N(c2ccccc2)C[C@@H]2C[C@@H](c3ccc4nonc4c3)N3CCC[C@@]123` are over 22.1 µM, 2.37 µM and 2.5 µM.
In turn, `COc1cc(OC)cc(C(=O)N2CCN(c3ccccn3)CC2)c1` gave a CC50 in series [1] of over 10 µM. For the same compound, the EC50 in the series with Plasmodium falciparum [2] is over 1.25 µM; in the series with Plasmodium falciparum [3] it was over 1.13 µM.
In series [1], `COc1ccc(OC)c(NC(=O)c2cnn3c(C(F)(F)F)cc(-c4ccc(OC)c(OC)c4)nc23)c1` came in with a half-maximal cytotoxic concentration (CC50) of over 10 µM. The figures for the EC50 in the series with Plasmodium falciparum [2] and with Plasmodium falciparum [3] were over 1.25 µM and 1.14 µM, respectively.
In the case of `COc1ccc(N2CCN(C(=O)C3=C(C)C(=O)OC34CCCCC4)CC2)cc1`, in series [1], the CC50 was over 10 µM. Moreover, the concentration for a half-maximal effect (EC50) with Plasmodium falciparum [2] was 1.62 µM; in the series with Plasmodium falciparum [3] it was over 1.13 µM.
For `CCCCCCN(CCCCCC)CC(O)c1cc(-c2ccc(Cl)cc2)nc2c(C)cc(C)cc12` (stereo unspecified) the same measures were 51.9 µM, 7.13 µM and 5.94 µM.
For `CC(=O)Nc1ccc(-c2nc(-c3ccc(Oc4ccc(-c5[nH]c(-c6ccc(NC(C)=O)cc6)nc5-c5ccccc5)cc4)cc3)c(-c3ccccc3)[nH]2)cc1` the same measures were 50.1 µM, 6.95 µM and 5.59 µM.
As for `CCOc1ccc(NC(=O)N(CCC(C)C)C(C)c2nc3ccccc3c(=O)n2-c2cccc(Cl)c2C)cc1` (stereo unspecified), the CC50 in series [1] was over 10 µM. The EC50 in the series with Plasmodium falciparum [2] was found to be 1.2 µM; with Plasmodium falciparum [3], 1.14 µM.
For `O=C(CCCc1nc(-c2ccccc2)no1)NCc1cccnc1` the same measures were over 10 µM, over 1.77 µM and 1.13 µM.
In the same order, the values of `CCOC(=O)c1c(NC(=O)CCC(=O)OC)sc2c1CC(C)(C)SC2` are over 10 µM, over 0.65 µM and over 1.11 µM.
Turning to `Cc1ccc(S(=O)(=O)N=C(NS(=O)(=O)c2ccc(C)cc2)c2ccccc2)cc1`, in series [1], the CC50 is over 100 µM. Also, the EC50 in the series on Plasmodium falciparum [2] and in the series with Plasmodium falciparum [3] was over 11.2 µM throughout.
On to `O=C(O)c1ccc(NC(=O)c2ccc(N3C(=O)C4C5C=CC(C5)C4C3=O)cc2)cc1` (stereo unspecified), for which the CC50 in series [1] is over 100 µM. In addition, the EC50 with Plasmodium falciparum [2] and in the series with Plasmodium falciparum [3] was over 11.2 µM throughout.
In series [1], `N#CC1=C(N)Oc2c3c(c4ccccc4c2C1c1ccc(F)cc1)C(c1ccc(F)cc1)C(C#N)=C(N)O3` (stereo unspecified) displayed a CC50 of 21.6 µM. For the same compound, the EC50 in the series with Plasmodium falciparum [2] worked out at 4.09 µM; in the series with Plasmodium falciparum [3], 2.44 µM.
Take `CC(=O)Nc1ccc2c(c1)C(=O)N(C(C(=O)NC1CCCCC1)c1ccc([N+](=O)[O-])cc1)[C@@H](c1ccccc1)C(=O)N2` (stereo partly specified): the half-maximal cytotoxic concentration (CC50) in series [1] was 7.68 µM. Besides, the EC50 in the series with Plasmodium falciparum [2] is over 1.25 µM; in the series on Plasmodium falciparum [3] it was over 0.873 µM.
